Test results: PubChem BioAssay AID1053134 (The Scripps Research Institute Molecular Screening Center, 2014)
Calls of active or inactive are those of the source. How the calls were made is not given here.

Molecular target: methionyl-tRNA synthetase (Trypanosoma brucei brucei)
Assay: inhibition of trypanosomal methionyl-tRNA synthetase – biochemical, fluorescence polarization, dose response, round 3, orthogonal assay for T. brucei MetRS inhibitor project, late-stage follow-up (AID 1053134)
Details: recombinant T. brucei MetRS

Question: How did the IC50 turn out when `CCN(CC)C(=O)C(=O)c1cn(CC(=O)Nc2cccc(C(F)(F)F)c2)c2ccccc12` was run?
Answer: 360 nM

Question: `CCN(CC)C(=O)C(=O)c1cn(CC(=O)Nc2cc(Oc3ccccc3OC)cc(C(F)(F)F)c2)c2ccccc12` was tested. Which IC50 did it give?
Answer: 521 nM

Question: Which IC50 does the source give for `Nc1c(Cl)ncnc1Nc1ccc(C(=O)O)cc1` here?
Answer: 8500 nM

Question: How did the IC50 turn out when `CCN(CC)C(=O)Cc1cn(CC(=O)Nc2cccc(C(F)(F)F)c2)c2ccccc12` was run?
Answer: > 119000 nM (inactive)

Question: How did the IC50 turn out when `CCN(CC)C(=O)C(=O)c1cn(CC(=O)Nc2cc(Oc3ccccc3)cc(C(F)(F)F)c2)c2ccccc12` was run?
Answer: 145 nM

Question: `O=C(Cc1ccc(Nc2nc3ccc(Br)cc3[nH]2)cc1)NCCc1cccs1` was tested. Which IC50 did it give?
Answer: inactive

Question: With `CCN(CC)C(=O)C(=O)c1cn(CCNc2cccc(C(F)(F)F)c2)c2ccccc12` as the compound, how does the IC50 read?
Answer: > 119000 nM (inactive)

Question: `CCN(CC)C(=O)C(=O)c1cn(CC(=O)Nc2cc(Oc3ccc(F)cc3)cc(C(F)(F)F)c2)c2ccccc12` was tested. Which IC50 did it give?
Answer: 632 nM

Question: `CCN(CC)C(=O)C(=O)c1cn(CC(=O)Nc2cc(Oc3ccc(OC)cc3)cc(C(F)(F)F)c2)c2ccccc12` was tested. Which IC50 did it give?
Answer: 477 nM

Question: Which IC50 does the source give for `O=C(Cn1cc(C(=O)C(=O)NCc2ccccc2)c2ccccc21)Nc1cc(Oc2ccccc2)cc(C(F)(F)F)c1` here?
Answer: inactive

Question: For `CCN(CC)C(=O)C(=O)c1cn(CC(=O)Nc2cc(Oc3ccccc3F)cc(C(F)(F)F)c2)c2ccccc12`, which IC50 is on record?
Answer: 381 nM

Question: `CCN(CC)C(=O)C(=O)c1cn(CCNc2cc(Oc3ccccc3)cc(C(F)(F)F)c2)c2ccccc12` was tested. Which IC50 did it give?
Answer: > 119000 nM (inactive)
